Paper PMC11272821, “Mechanistic safety assessment via multi-omic characterisation of systemic pathway perturbations following in vivo MAT2A inhibition” (Archives of Toxicology, 2024)

Tested on: rat liver proteome
Experiment: Liver label-free quantitative proteomics
Format: in vivo
Conditions: for differentially expressed liver proteins vs vehicle control: adjusted p < 0.05 and Log2 FC > 0.5 or < −0.5
Description: Liver tissue were homogenized in PreOmics iST buffer (PreOmics) using a bead ruptor. […] Peptides were purified using PreOmics iST cartridges and vacuum-centrifuged to dryness. Peptides were subsequently reconstituted in 2 vol% ACN and 0.1 vol% formic acid for single-run LC–MS analysis. Peptides were analyzed using a Thermo EASY-nLC1200 coupled online to an Exploris 480 Mass Spectrometer equipped with a Nanospray Flex Ion Source integrated with a column oven (PRSO-V1, Sonation) and a FAIMS unit. Peptides were separated using a nonlinear gradient and analyzed by acquiring spectra through Data Independent Acquisition (DIA). Data was analyzed using Spectronaut V15.7.2 (Biognosys AG) direct DIA analysis using an isoform Rat database (UniProt downloaded 22.02.2021) consisting of 9,746 protein entries utilizing the Pulsar search engine. Analysis settings were maintained to factory settings and identification was set to 1% false discovery rate (FDR) for precursor and protein level. Additional information is provided in Supplementary M&M.
Data analysis was performed using R Statistical Software (version 4.3.0). Proteomics, transcriptomics and metabolomics expression changes were visualised using heatmaps showing log2 fold change relative to control. In the heatmaps missing values were highlighted in grey.
Proteomics Analysis. Liver tissue was placed in vials containing 1.4 mm zirconia beads and taken up in 500 µL of PreOmics iST buffer (PreOmics). In a cold room set to 4 °C, tissues were homogenized utilizing a bead Ruptor 12 by shaking for 30 seconds for a total of 5 times using ‘high’ setting. Lysate was normalized using BCA assay (Thermo Fisher Scientific), and subsequently incubated at 95 °C for 10 min for reduction, and alkylation of proteins. A total of 50 μg from each sample was subjected to enzymatic cleavage for 3 h by adding equal amounts of endoproteinase Lys-C and trypsin (ThermoFisher Scientific, # A40009) in a 1:50 (wt/wt) enzyme:protein ratio. De-salting and purification were performed according to the PreOmics iST protocol on a styrene divinylbenzene reversed-phase sulfonate sorbent. Purified peptides were vacuum-centrifuged to dryness and reconstituted in double-distilled water with 2 vol% ACN and 0.1 vol% formic acid (FA) for single-run LC-MS analysis.
Peptides were loaded onto a ReproSil-Pur 120 C18AQ 1.9 µm in-house packed to a 5 µm tip 75u ID × 360u × 50 cm column using Thermo EASY-nLC 1200 coupled online to an Exploris 480 Mass Spectrometer equipped with a Nanospray Flex Ion Source integrated with a column oven (PRSO-V1, Sonation) maintained at 50 °C. Peptides were separated using a nonlinear gradient: Mobile phase A was 0.1 vol% FA and 3 vol% acetonitrile (ACN) in water, Mobile phase B was 90 vol% ACN and 0.1 vol % FA. The gradient was operated at 250 nL/min flowing 3 vol% B for 3 min, 3 to 5 vol% B over 3 min, 5 to 17 vol % B over 120 min, 17 to 24 vol % B over 26 min, 24 to 30 vol% B over 14 min, 30 to 85 vol% B over 3 min.

## Cn1cc2cc(-c3cc4[nH]nc(C5CC5)c4n(-c4ccc(OC(F)F)cc4)c3=O)ccc2n1 [AZ’9567]
3 mg/kg BID
  differentially expressed liver proteins vs vehicle control: around 357
Highest dose (30 mg/kg BID)
  differentially expressed liver proteins vs vehicle control: 519
Liver protein, 3mg/kg
  A2m Log2FC: 1.7
  Abcb1 Log2FC: 1.4
  Abhd1 Log2FC: -1.8
  Acaca Log2FC: -1
  Acbd4 Log2FC: -0.7
  Acly Log2FC: -1.1
  Acsl1 Log2FC: -0.7
  Acsl3 Log2FC: -0.8
  Acsm2 Log2FC: 1.4
  Akap5 Log2FC: -1.0
  Aldh1a1 Log2FC: 1.7
  Aldh1a7 Log2FC: 1.5
  Aldh16a1 Log2FC: -0.6
  Alpl Log2FC: 1.8
  Als2 Log2FC: -1.1
  Anpep Log2FC: 0.8
  Aox1 Log2FC: -0.6
  Apeh Log2FC: -0.7
  Apoc1 Log2FC: -1.2
  Aqp8 Log2FC: 0.8
  Asns Log2FC: 1.6
  Baat Log2FC: -0.8
  Banf1 Log2FC: 0.8
  Bhmt2 Log2FC: 1.2
  Bhmt Log2FC: 1.7
  Brix1 Log2FC: 0.7
  Ca5a Log2FC: 1.1
  Carnmt1 Log2FC: -1.4
  Cbs Log2FC: -2.9
  Ccnd1 Log2FC: 12.4
  Cdh1 Log2FC: 0.7
  Cdo1 Log2FC: -3.9
  Ces2c Log2FC: 1.4
  Cfdp1 Log2FC: 0.5
  Chid1 Log2FC: 0.9
  Comt Log2FC: -0.5
  Coq4 Log2FC: 1.0
  Csad Log2FC: -0.7
  Ctbs Log2FC: -0.6
  Cyp2c23 Log2FC: -0.6
  Cyp4a2 Log2FC: 1.4
  Cyp4a10 Log2FC: 1.7
  Dbnl Log2FC: 0.6
  Dcakd Log2FC: 1.0
  Dkc1 Log2FC: 0.6
  Dmgdh Log2FC: 1
  Dohh Log2FC: 0.8
  Eif4ebp1 Log2FC: 1.1
  Enpep Log2FC: -0.8
  Fabp5 Log2FC: -0.7
  Fads1 Log2FC: -1.3
  Fasn Log2FC: -0.7
  Fdft1 Log2FC: 0.9
  Fdps Log2FC: 0.5
  Fgr Log2FC: 1.5
  Gimd1 Log2FC: -0.7
  Gmpr Log2FC: 0.8
  Gnl3 Log2FC: 1.0
  Gnmt Log2FC: 1.6
  Gpcpd1 Log2FC: 1.2
  Gstm1 Log2FC: -0.8
  Gstm2 Log2FC: -0.8
  Gtpbp4 Log2FC: 0.7
  Hexa Log2FC: -0.6
  Hfe Log2FC: 1.1
  Hmgcs1 Log2FC: 1.3
  Hmgn2 Log2FC: 1.0
  Hnrnpa1 Log2FC: 1.1
  Hsd17b7 Log2FC: 0.6
  Idi1 Log2FC: 0.9
  Igf1 Log2FC: -1.4
  Kalrn Log2FC: 0.7
  Lipa Log2FC: -0.8
  Lrrc8d Log2FC: 0.9
  Lyrm2 Log2FC: 0.8
  Mat1a Log2FC: 0.9
  Mat2a Log2FC: 0.8
  Mat2b Log2FC: -1.9
  Me1 Log2FC: -1
  Mettl7b Log2FC: -0.6
  Mettl26 Log2FC: -1.8
  Minpp1 Log2FC: 0.6
  Mospd1 Log2FC: -0.5
  Mt1 Log2FC: 6.2
  Mtr Log2FC: 1.1
  Mybbp1a Log2FC: 0.7
  Ncl Log2FC: 0.6
  Nob1 Log2FC: 0.9
  Orm1 Log2FC: 1.1
  Paics Log2FC: 0.7
  Pcyt1a Log2FC: 0.7
  Pklr.1 Log2FC: -1
  Prmt1 Log2FC: 0.6
  Pspc1 Log2FC: 0.5
  Ptprs Log2FC: -0.9
  Pum3 Log2FC: 0.7
  Rbm3 Log2FC: 0.9
  Rgn Log2FC: -0.7
  Rmdn1 Log2FC: 0.6
  S1pr1 Log2FC: -0.7
  Scd1 Log2FC: -2.8
  Sh3glb1 Log2FC: 0.7
  Sirt2 Log2FC: 0.7
  Sts Log2FC: -0.7
  Tat Log2FC: -1.5
  Tceanc2 Log2FC: 1.2
  Thg1l Log2FC: 0.5
  Tpmt Log2FC: -1.3
  Tspo Log2FC: 1.7
  Txnrd2 Log2FC: -0.8
  Ube2f Log2FC: 0.7
  Ugt2b1 Log2FC: -1.6
  Wdr45 Log2FC: -0.8
  Ythdc1 Log2FC: 0.7
  mvd Log2FC: 0.7
Liver protein, 10mg/kg
  A2m Log2FC: 3.3
  Abcb1 Log2FC: 1.6
  Abhd1 Log2FC: -0.9
  Acaca Log2FC: -1.2
  Acbd4 Log2FC: -1.3
  Acly Log2FC: -0.6
  Acsl1 Log2FC: -0.7
  Acsl3 Log2FC: -0.6
  Acsl5 Log2FC: -0.6
  Akap5 Log2FC: -1.6
  Aldh1a1 Log2FC: 1.5
  Aldh1a7 Log2FC: 1.4
  Aldh16a1 Log2FC: -0.5
  Alpl Log2FC: 1.6
  Als2 Log2FC: -0.9
  Anpep Log2FC: 1.3
  Aox1 Log2FC: -1.3
  Apeh Log2FC: -0.7
  Apoc1 Log2FC: -0.9
  Aqp8 Log2FC: 0.9
  Asns Log2FC: 0.9
  Baat Log2FC: -1.1
  Banf1 Log2FC: 0.7
  Bhmt2 Log2FC: 1.3
  Bhmt Log2FC: 1.7
  Brix1 Log2FC: 0.9
  Ca5a Log2FC: 0.7
  Carnmt1 Log2FC: -1.5
  Cbs Log2FC: -3.1
  Ccnd1 Log2FC: 17.1
  Cdh1 Log2FC: 0.7
  Cdo1 Log2FC: -5.2
  Ces2c Log2FC: 1.2
  Cfdp1 Log2FC: 0.5
  Chid1 Log2FC: 1.0
  Comt Log2FC: -0.6
  Coq4 Log2FC: 0.6
  Csad Log2FC: -1.3
  Ctbs Log2FC: -0.7
  Cyp2c23 Log2FC: -1.1
  Cyp4a10 Log2FC: 0.7
  Dbnl Log2FC: 0.5
  Dcakd Log2FC: 1.3
  Dkc1 Log2FC: 0.6
  Dmgdh Log2FC: 0.5
  Dohh Log2FC: 0.9
  Eif4ebp1 Log2FC: 0.8
  Enpep Log2FC: -0.8
  Fabp4 Log2FC: 1.1
  Fdft1 Log2FC: 0.7
  Fgr Log2FC: 1.6
  Gimd1 Log2FC: -0.9
  Gmpr Log2FC: 0.7
  Gnl3 Log2FC: 0.9
  Gnmt Log2FC: 1.3
  Gpcpd1 Log2FC: 1.4
  Gstm1 Log2FC: -0.7
  Gstm2 Log2FC: -1.0
  Gtpbp4 Log2FC: 0.8
